Reference: article PMC7156458, “Synthetic biology based construction of biological activity-related library of fungal decalin-containing diterpenoid pyrones” (Nature Communications, 2020)

Target: Aβ42 (Homo sapiens, UniProt P05067)
Assay: Th-T (thioflavin-T) assay of Aβ42 aggregation
Type: biochemical
Conditions: for Th-T fluorescence, mean of three wells: compound at 50

Chain of Aβ42 (P05067 672-713): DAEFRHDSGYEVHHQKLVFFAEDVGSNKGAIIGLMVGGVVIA

## C=C1CC[C@@H]2[C@](C)(CC[C@H]3O[C@H](C=C(C)C)C[C@@]23C)[C@@H]1Cc1c(OC)oc(CO)c(C)c1=O [Compound 20]
Reading M54 of time course
  Th-T fluorescence, mean of three wells: 2.134
Reading M55 of time course
  Th-T fluorescence, mean of three wells: 2.09
Reading M56 of time course
  Th-T fluorescence, mean of three wells: 2.129
Reading M57 of time course
  Th-T fluorescence, mean of three wells: 2.102
Reading M58 of time course
  Th-T fluorescence, mean of three wells: 2.115
Reading M59 of time course
  Th-T fluorescence, mean of three wells: 2.0923
Reading M60 of time course
  Th-T fluorescence, mean of three wells: 2.089
Reading M61 of time course
  Th-T fluorescence, mean of three wells: 2.104
Reading M62 of time course
  Th-T fluorescence, mean of three wells: 2.094
Concentration 10, unit not given, time-course reading M129
  Th-T fluorescence of Aβ42 with compound, mean of three wells (Fig. 7a source data): 3.179
Concentration 10, unit not given, time-course reading M130
  Th-T fluorescence of Aβ42 with compound, mean of three wells (Fig. 7a source data): 3.204
Concentration 10, unit not given, time-course reading M131
  Th-T fluorescence of Aβ42 with compound, mean of three wells (Fig. 7a source data): 3.189
Concentration 10, unit not given, time-course reading M132
  Th-T fluorescence of Aβ42 with compound, mean of three wells (Fig. 7a source data): 3.188
Concentration 10, unit not given, time-course reading M133
  Th-T fluorescence of Aβ42 with compound, mean of three wells (Fig. 7a source data): 3.166
Concentration 10, unit not given, time-course reading M134
  Th-T fluorescence of Aβ42 with compound, mean of three wells (Fig. 7a source data): 3.1894
Concentration 10, unit not given, time-course reading M135
  Th-T fluorescence of Aβ42 with compound, mean of three wells (Fig. 7a source data): 3.162
Concentration 10, unit not given, time-course reading M136
  Th-T fluorescence of Aβ42 with compound, mean of three wells (Fig. 7a source data): 3.159
Concentration 10, unit not given, time-course reading M137
  Th-T fluorescence of Aβ42 with compound, mean of three wells (Fig. 7a source data): 3.15
Concentration 10, unit not given, time-course reading M138
  Th-T fluorescence of Aβ42 with compound, mean of three wells (Fig. 7a source data): 3.16
Concentration 10, unit not given, time-course reading M139
  Th-T fluorescence of Aβ42 with compound, mean of three wells (Fig. 7a source data): 3.169
Concentration 10, unit not given, time-course reading M140
  Th-T fluorescence of Aβ42 with compound, mean of three wells (Fig. 7a source data): 3.158
Concentration 10, unit not given, time-course reading M141
  Th-T fluorescence of Aβ42 with compound, mean of three wells (Fig. 7a source data): 3.147
Concentration 10, unit not given, time-course reading M142
  Th-T fluorescence of Aβ42 with compound, mean of three wells (Fig. 7a source data): 3.131
Concentration 10, unit not given, time-course reading M143
  Th-T fluorescence of Aβ42 with compound, mean of three wells (Fig. 7a source data): 3.135
Concentration 10, unit not given, time-course reading M144
  Th-T fluorescence of Aβ42 with compound, mean of three wells (Fig. 7a source data): 3.139
Concentration 10, unit not given, time-course reading M145
  Th-T fluorescence of Aβ42 with compound, mean of three wells (Fig. 7a source data): 3.1201
Concentration 20, unit not given, time-course reading M129
  Th-T fluorescence of Aβ42 with compound, mean of three wells (Fig. 7a source data): 3.1
Concentration 20, unit not given, time-course reading M130
  Th-T fluorescence of Aβ42 with compound, mean of three wells (Fig. 7a source data): 3.095
Concentration 20, unit not given, time-course reading M131
  Th-T fluorescence of Aβ42 with compound, mean of three wells (Fig. 7a source data): 3.098
Concentration 20, unit not given, time-course reading M132
  Th-T fluorescence of Aβ42 with compound, mean of three wells (Fig. 7a source data): 3.079
Concentration 20, unit not given, time-course reading M133
  Th-T fluorescence of Aβ42 with compound, mean of three wells (Fig. 7a source data): 3.072
Concentration 20, unit not given, time-course reading M134
  Th-T fluorescence of Aβ42 with compound, mean of three wells (Fig. 7a source data): 3.073
Concentration 20, unit not given, time-course reading M135
  Th-T fluorescence of Aβ42 with compound, mean of three wells (Fig. 7a source data): 3.076
Concentration 20, unit not given, time-course reading M136
  Th-T fluorescence of Aβ42 with compound, mean of three wells (Fig. 7a source data): 3.0605
Concentration 20, unit not given, time-course reading M137
  Th-T fluorescence of Aβ42 with compound, mean of three wells (Fig. 7a source data): 3.049
Concentration 20, unit not given, time-course reading M138
  Th-T fluorescence of Aβ42 with compound, mean of three wells (Fig. 7a source data): 3.042
Concentration 20, unit not given, time-course reading M139
  Th-T fluorescence of Aβ42 with compound, mean of three wells (Fig. 7a source data): 3.041
Concentration 20, unit not given, time-course reading M140
  Th-T fluorescence of Aβ42 with compound, mean of three wells (Fig. 7a source data): 3.025
Concentration 20, unit not given, time-course reading M141
  Th-T fluorescence of Aβ42 with compound, mean of three wells (Fig. 7a source data): 3.02
Concentration 20, unit not given, time-course reading M142
  Th-T fluorescence of Aβ42 with compound, mean of three wells (Fig. 7a source data): 3.019
Concentration 20, unit not given, time-course reading M143
  Th-T fluorescence of Aβ42 with compound, mean of three wells (Fig. 7a source data): 3.013
Concentration 20, unit not given, time-course reading M144
  Th-T fluorescence of Aβ42 with compound, mean of three wells (Fig. 7a source data): 3.009
Concentration 20, unit not given, time-course reading M145
  Th-T fluorescence of Aβ42 with compound, mean of three wells (Fig. 7a source data): 2.993
Concentration 50, unit not given, time-course reading M129
  Th-T fluorescence of Aβ42 with compound, mean of three wells (Fig. 7a source data): 2.106
Concentration 50, unit not given, time-course reading M130
  Th-T fluorescence of Aβ42 with compound, mean of three wells (Fig. 7a source data): 2.116
Concentration 50, unit not given, time-course reading M131
  Th-T fluorescence of Aβ42 with compound, mean of three wells (Fig. 7a source data): 2.114
Concentration 50, unit not given, time-course reading M132
  Th-T fluorescence of Aβ42 with compound, mean of three wells (Fig. 7a source data): 2.119
Concentration 50, unit not given, time-course reading M133
  Th-T fluorescence of Aβ42 with compound, mean of three wells (Fig. 7a source data): 2.114
Concentration 50, unit not given, time-course reading M134
  Th-T fluorescence of Aβ42 with compound, mean of three wells (Fig. 7a source data): 2.123
Concentration 50, unit not given, time-course reading M135
  Th-T fluorescence of Aβ42 with compound, mean of three wells (Fig. 7a source data): 2.118
Concentration 50, unit not given, time-course reading M136
  Th-T fluorescence of Aβ42 with compound, mean of three wells (Fig. 7a source data): 2.117
Concentration 50, unit not given, time-course reading M137
  Th-T fluorescence of Aβ42 with compound, mean of three wells (Fig. 7a source data): 2.122
Concentration 50, unit not given, time-course reading M138
  Th-T fluorescence of Aβ42 with compound, mean of three wells (Fig. 7a source data): 2.119
Concentration 50, unit not given, time-course reading M139
  Th-T fluorescence of Aβ42 with compound, mean of three wells (Fig. 7a source data): 2.116
Concentration 50, unit not given, time-course reading M140
  Th-T fluorescence of Aβ42 with compound, mean of three wells (Fig. 7a source data): 2.117
Concentration 50, unit not given, time-course reading M141
  Th-T fluorescence of Aβ42 with compound, mean of three wells (Fig. 7a source data): 2.123
Concentration 50, unit not given, time-course reading M142
  Th-T fluorescence of Aβ42 with compound, mean of three wells (Fig. 7a source data): 2.118
